Data as given in EP4748903A1, “ULTRAVIOLET ABSORBER, ANTIOXIDANT, ANTI-GLYCATION AGENT, EXTERNAL PREPARATION FOR SKIN, COSMETIC, METHOD FOR PRODUCING COMPOUND, AND COMPOUND” (Meijo University, priority 2023, dated 2025).
Where two headings read alike, the source gives them in different places.

Columns and labels:
[1] = Measurement of ABTS radical scavenging activity; type: biochemical; conditions: for IC50: ABTS method, room temperature, dark; for β/α value: IC50 after 40 minutes (β) divided by IC50 after 20 minutes (α), ABTS radical scavenging
Experimental: To evaluate the antioxidant activity of saclipin A and saclipin B, 2,2-azino-bis(3-ethylbenzothiazoline-6-sulfonic acid) diammonium salt (ABTS) radical scavenging activity was measured.
The ABTS radical solution was diluted with ethanol such that the absorbance at 734 nm was about 1.0. 50 µL of this diluted ABTS radical solution and 50 µL of the test sample ethanol solution were mixed, and the mixed reactant was held at room temperature for 20 or 40 minutes in the dark, then the absorbance was measured at 734 nm. […] Ascorbic acid and Trolox were used as standard samples. Inhibition rates were calculated using the following equation. Inhibition activity (%) = ((Ab−As)/Ab) × 100 [formula]
Here, Ab and As represent the absorbances of the blank sample and the test sample, respectively.

[2] = Time course experiment of ABTS radical scavenging (temporal change in antioxidant activity); type: biochemical; conditions: recorded for 2900 seconds at 25°C, 734 nm; saclipin A 0.60 mM, saclipin B 0.18 mM, ascorbic acid 6 µM, Trolox 6 µM
Experimental: A 7 mM ABTS aqueous solution and a 2.45 mM potassium persulfate aqueous solution were mixed at 25°C for 16 hours in the dark to prepare an ABTS radical solution. The ABTS radical solution was diluted with ethanol such that the absorbance at 734 nm was about 1.0. 50 µL of this diluted ABTS radical solution and 50 µL of the test sample ethanol solution were mixed, and the mixed reactant was held at room temperature for 20 or 40 minutes in the dark, then the absorbance was measured at 734 nm. The final reaction concentration of the sample was adjusted to 0 mM, 0.06 mM, 0.12 mM, 0.18 mM, 0.24 mM, 0.30 mM, 0.60 mM, 1.20 mM, and 1.80 mM. Ascorbic acid and Trolox were used as standard samples. Inhibition rates were calculated using the following equation. Inhibition activity (%) = ((Ab−As)/Ab) × 100 [formula]
Therefore, the temporal change of radical scavenging was measured by a time course experiment. In the time course experiment, the decrease in absorbance after addition of the test sample was recorded continuously for 2900 seconds at 25°C and 734 nm. In the time course experiment, the final reaction concentrations of saclipin A, saclipin B, ascorbic acid, and Trolox were adjusted to 0.60 mM, 0.18 mM, 6 µM, and 6 µM, respectively.

elastin = experiment: Elastin anti-glycation assay kit; type: biochemical; conditions: for IC50: sample dissolved in DMSO, read-out: IC50 value, inhibition effect on the glycation reaction of elastin
Experimental: (§1) To evaluate the anti-glycation activity of saclipin A and saclipin B, the effect on glycation of elastin and collagen was investigated.
(§2) The effect of saclipin on the glycation of elastin and collagen was evaluated using an elastin anti-glycation assay kit (product number: AAS-AGE-K05, Cosmo Bio Co., Ltd.) and a collagen anti-glycation assay kit (product number: AK71, Cosmo Bio Co., Ltd.), respectively. The assay was performed according to the manufacturer's protocol using saclipin A and saclipin B purified from Suizenji-nori. However, since saclipin was not dissolved in the attached aqueous buffer solution, it was dissolved in dimethyl sulfoxide (DMSO) and subjected to an experiment. The final reaction concentration of the sample was adjusted to 0 mM, 0.5 mM, 1.0 mM, 2.0 mM, and 4.0 mM.

collagen = experiment: Collagen anti-glycation assay kit; type: biochemical; conditions: sample dissolved in DMSO; read-out: IC50 value, inhibition effect on glycation of collagen
Experimental: as §1, §2

[3] = test system: neonatal human dermal fibroblasts (NHDF); experiment: MTT test on neonatal human dermal fibroblasts (biocompatibility test); type: cell-based; conditions: compared with 1% ethanol control; for appearance of cells (microphotographs): 10.0 µM; for cytotoxicity (cell viability, MTT): 0.1 to 10.0 µM
Experimental: (§3) In order to examine the cytotoxicity of saclipin A and saclipin B, MTT tests were performed on (1) neonatal human dermal fibroblasts and (2) human keratinocytes.
(§4) The neonatal human dermal fibroblasts (NHDF) were purchased from ATCC. The neonatal human dermal fibroblasts were seeded in 96-well plates at 1×10^4 cells/well. Neonatal human dermal fibroblasts were cultured overnight at 37°C, 5% CO2 using Dulbecco's modified eagle medium (DMEM) in which 10% fetal bovine serum, […], and 10 mM HEPES were added to DMEM. 0.1 µM, 0.36 µM, 1.0 µM, 3.6 µM, and 10.0 µM of saclipin A or saclipin B were added to each cell. As a control, 1% ethanol was added to the cells. Next, 0.5 mg/mL MTT(3-(4,5-dimethylthiazole-2-yl)-2,5-diphenyltetrazolium bromide) was added, and the mixture was cultured for 20 hours at 37°C, 5% CO2. The whole formazan crystals were dissolved in dimethyl sulfoxide (DMSO), and then the absorbance of each sample solution was measured at 540 nm to determine the cell viability.
(§5) The upper part of Fig. 12 is a graph showing the results of cell viability (%). The labels on the horizontal axis represent each sample corresponding to the bar graph. For example, the labels "saclipin A" "10.00" represent that the cells were treated with 10.0 µM saclipin A. The vertical axis represents the cell viability when the cell viability of cells treated with 1% ethanol is taken as 100%.

PSVK1 cells = experiment: MTT test on human keratinocytes (biocompatibility test); type: cell-based; conditions: compared with 1% ethanol control; for appearance of cells (microphotographs): 10.0 µM; for cytotoxicity (cell viability, MTT): 0.1 to 10.0 µM
Experimental: as §3, §4
PSVK1 cells (JCRB1093, JCRB Cell Bank, National Institute of Biomedical Innovation, Health and Nutrition, Japan) were used as human keratinocytes. In this test, the test was carried out in the same manner as in "(1) MTT test on neonatal human dermal fibroblasts" described above except that the cells were cultured using a keratinocyte medium (Thermo Fisher Scientific) supplemented with 0.05 mg/mL bovine pituitary extract, 0.005 µg/mL epidermal growth factor, 100 units/mL penicillin, and 100 µg/mL streptomycin (Gibco).
as §5, with “Fig. 13” for “Fig. 12”, “viability (cell viability, %).” for “viability (%).”, “to each” for “to the”

[4] = Absorption spectrum analysis (ultraviolet absorption); type: physicochemical; conditions: methanol solution; for Molar absorption coefficient: at the absorption maximum
Experimental: The obtained dried sample was dissolved in methanol, and subjected to absorption spectrum analysis, high-resolution mass spectrometry, and measurement of ^1H and ^13C-NMR spectra. In each graph of Fig. 3, the horizontal axis represents wavelength (nm), and the vertical axis represents relative absorbance.
The absorption spectra of "saclipin A (Sac A)", "saclipin B (Sac B)", "methyl-esterified saclipin A (Sac A_methyl ester)", and "methyl-esterified saclipin B (Sac B_methyl ester)" were acquired by the method described in "2. Structure determination of saclipin A and saclipin B" described above. In each graph of Fig. 11, the horizontal axis represents wavelength (nm), and the vertical axis represents relative absorbance. The maximum point of saclipin A was 317 nm. The maximum point of methyl-esterified saclipin A was 316 nm. The maximum point of saclipin B was 319 nm. The maximum point of methyl-esterified saclipin B was 319 nm.

[5] = Photoisomerization by light irradiation, HPLC analysis; type: physicochemical; conditions: for time for which the amount ratio of saclipin A and saclipin B did not change: dark treatment after light irradiation
Experimental: Saclipin A purified from dried Suizenji-nori was dissolved in methanol, ethanol or acetonitrile, and the solution was irradiated with light of 6000 lux under a white fluorescent lamp for 24 hours or longer. Thereafter, HPLC analysis was performed under the following measurement conditions to calculate the amounts of saclipin A and saclipin B, and the isomerization rate of saclipin A was calculated. The chromatogram of the saclipin A solution before light irradiation is shown on the left in Fig. 6, and the chromatogram of the saclipin A solution after light irradiation is shown on the right in Fig. 6.
• Detection wavelength: 320 nm • Column: Inerteil ODS-P 3 µm, 4.6×33 + 4.6×150 mm • Eluent: 50% Acetonitrile (isocratic)

[6] = reaction time 20 min, read-out: IC50 value (µM) 20 min
[7] = reaction time 40 min, read-out: IC50 value (µM) 40 min

O=C1O[C@H]([C@@H](O)CO)C(O)=C1O [Ascorbic acid, reference compound]
IC50 [1, 6]: 7.9 µM | IC50 [1, 7]: 7.5 µM | β/α value [1]: 0.95 | temporal change of radical scavenging [2]: hardly functioned after a radical scavenging reaction occurred immediately after addition

Cc1c(C)c2c(c(C)c1O)CCC(C)(C(=O)O)O2 (centres unmarked) [Trolox, 6-hydroxy-2,5,7,8-tetramethylchroman-2-carboxylic acid, reference compound]
IC50 [1, 6]: 6.7 µM | IC50 [1, 7]: 6.7 µM | β/α value [1]: 1.00 | temporal change of radical scavenging [2]: hardly functioned after a radical scavenging reaction occurred immediately after addition

N=C(N)NN [aminoguanidine, reference compound]
IC50 (elastin): 1.5 mM | IC50 (collagen): 2.4 mM

CCC(=O)/C=C/C=C/C=C/C(=O)CCCCCCCC(=O)O [saclipin A, (10E,12E,14E)-9,16-Dioxooctadeca-10,12,14-trienoic acid]
IC50 [1, 6]: 974 µM | IC50 [1, 7]: 717 µM | β/α value [1]: 0.78 | temporal change of radical scavenging [2]: proceeded even after 2900 seconds | IC50 (elastin): 2.5 mM | IC50 (collagen): 1.9 mM | appearance of cells (microphotographs) [3]: no abnormality was observed | cytotoxicity (cell viability, MTT) [3]: not higher than that of 1% ethanol at any concentration | appearance of cells (microphotographs) (PSVK1 cells): no abnormality was observed | cytotoxicity (cell viability, MTT) (PSVK1 cells): not higher than that of 1% ethanol at any concentration | Molar absorption coefficient [4]: 26,454 M^-1cm^-1 | Absorption maximum [4]: 317 nm | Absorption maximum ([4]; listed as Saclipin A): 316 nm | time for which the amount ratio of saclipin A and saclipin B did not change [5]: at least 96 hours | dissolved saclipin A converted to saclipin B ([5]; methanol, ethanol or acetonitrile, 6000 lux white fluorescent lamp, 24 hours or longer): About 90%

CCC(=O)/C=C/C=C\C=C\C(=O)CCCCCCCC(=O)O [saclipin B, (10E,12Z,14E)-9,16-Dioxooctadeca-10,12,14-trienoic acid]
IC50 [1, 6]: 182 µM | IC50 [1, 7]: 142 µM | β/α value [1]: 0.74 | temporal change of radical scavenging [2]: proceeded even after 2900 seconds | glycation reaction inhibited (elastin) (elastin; concentration of 4 mM): about 45% | IC50 (collagen): 0.9 mM | appearance of cells (microphotographs) [3]: no abnormality was observed | cytotoxicity (cell viability, MTT) [3]: not higher than that of 1% ethanol at any concentration | appearance of cells (microphotographs) (PSVK1 cells): no abnormality was observed | cytotoxicity (cell viability, MTT) (PSVK1 cells): not higher than that of 1% ethanol at any concentration | Molar absorption coefficient [4]: 30,555 M^-1cm^-1 | Absorption maximum [4]: 319 nm | time for which the amount ratio of saclipin A and saclipin B did not change [5]: at least 96 hours
